# Source: patent US20170283425A1, “COMPOUNDS FOR THE INHIBITION OF CYCLOPHILINS AND USES THEREOF” (Merck Patent GmbH, priority 2016, published 2017)
# pIC50, pKd: −log10 of the molar value.
# How the values were obtained:
# [1] = target: T1, CypD (Homo sapiens, UniProt P30405); experiment: CypD binding assay (competition fluorescence polarisation with fluorescein-labelled cyclosporin)
# Experimental: The binding capacity of the compounds were measured using a competition Fluorescence-Polarisation based assay with fluorescine labelled cyclosporin. The protocol used was adapted from Hausch et al, Med Chem lett 2010, p 536.
# [2] = target: T1, CypD; experiment: SPR binding; conditions: SPR surface; read-out: SPR CypD (KDSS)
# Excerpt: Binding was confirmed on an SPR surface using a protocol adapted from Mori et al., J. Biomolecular Screening, 2009 p 419.
# [3] = target: T1, CypD; experiment: CypD enzymatic assay (PPase-chymotrypsin coupled, suc-AAPF-p-NA substrate); type: biochemical; conditions: colorimetric
# Experimental: The peptidyl-proline isomerase activity (PPase) was determined by using a PPase-chymotrypsin coupled assay with suc-AAPF-p-NA as substrated and colorimeric detection adapted from Liu et al., AnalBioChem, 2006 p 100.
# T1 sequence (P30405 30-207): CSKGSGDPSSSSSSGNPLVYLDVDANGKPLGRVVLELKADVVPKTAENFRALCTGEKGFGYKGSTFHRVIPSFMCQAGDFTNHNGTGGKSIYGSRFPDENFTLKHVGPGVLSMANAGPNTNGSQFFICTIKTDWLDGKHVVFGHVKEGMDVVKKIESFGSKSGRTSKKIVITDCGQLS
SMILES,pIC50 [1],pKd [2],pIC50 [3]
"O=C(NCC(=O)N1CCCC1)NCc1ccc2c(c1)[C@H]1C[C@@H](N2)[C@H](O)CO1 [Compound 12, 1-((1R,9R,10S)-10-Hydroxy-12-oxa-8-aza-tricyclo[7.3.1.02,7]trideca-2(7),3,5-trien-4-ylmethyl)-3-(2-oxo-2-pyrrolidin-1-yl-ethyl)-urea]",4.00 to 6.00,4.00 to 6.00,4.00 to 6.00
"CCN1Cc2cc(CNC(=O)NCC(=O)N3CCC[C@@H]3c3ccccc3SC)ccc2NCCC1=O [Compound 3, 1-(5-Ethyl-4-oxo-1,2,3,4,5,6-hexahydro-benzo[b][1,5]diazocin-8-ylmethyl)-3-{2-[(R)-2-(2-methylsulfanyl-phenyl)-pyrrolidin-1-yl]-2-oxo-ethyl}-urea]",> 6.00,> 6.00,–
"O=C(NCC(=O)N1CCC[C@@H]1C(F)(F)F)NCc1ccc2c(c1)[C@H]1C[C@@H](N2)[C@H](O)CO1 [Compound 8, 1-(((2R,3S,6R)-3-hydroxy-2,3,4,6-tetrahydro-1H-2,6-methanobenzo[c][1,5]oxazocin-8-yl)methyl)-3-(2-oxo-2-((R)-2-(trifluoromethyl)pyrrolidin-1-yl)ethyl)urea]",4.00 to 6.00,4.00 to 6.00,–
"CCN1Cc2cc(CCC(=O)NCC(=O)N3CCC[C@@H]3C(F)(F)F)ccc2NCCC1=O [Compound 30, 3-(5-Ethyl-4-oxo-1,2,3,4,5,6-hexahydro-benzo[b][1,5]diazocin-8-yl)-N-[2-oxo-2-((R)-2-trifluoromethyl-pyrrolidin-1-yl)-ethyl]-propionamide]",4.00 to 6.00,4.00 to 6.00,–
"CCN1Cc2cc(CCC(=O)NCC(=O)N3CCC[C@@H]3CO)ccc2NCCC1=O [Compound 33, 3-(5-Ethyl-4-oxo-1,2,3,4,5,6-hexahydro-benzo[b][1,5]diazocin-8-yl)-N-[2-(®-2-hydroxymethyl-pyrrolidin-1-yl)-2-oxo-ethyl]-propionamide]",4.00 to 6.00,4.00 to 6.00,–
"O=C(NCC(=O)N1CCC[C@H]1CO)NCc1ccc2c(c1)[C@H]1C[C@@H](N2)[C@H](O)CO1 [Compound 13, 1-(((2R,3S,6R)-3-hydroxy-2,3,4,6-tetrahydro-1H-2,6-methanobenzo[c][1,5]oxazocin-8-yl)methyl)-3-(2-((S)-2-(hydroxymethyl)pyrrolidin-1-yl)-2-oxoethyl)urea]",4.00 to 6.00,4.00 to 6.00,–
"CSc1ccccc1[C@H]1CCCN1C(=O)CN(C)C(=O)NCc1ccc2c(c1)[C@H]1C[C@@H](N2)[C@H](O)CO1 [Compound 16, 3-((1R,9R,10S)-10-Hydroxy-12-oxa-8-aza-tricyclo[7.3.1.02,7]trideca-2(7),3,5-trien-4-ylmethyl)-1-methyl-1-{2-[(R)-2-(2-methylsulfanyl-phenyl)-pyrrolidin-1-yl]-2-oxo-ethyl}-urea]",4.00 to 6.00,4.00 to 6.00,–
"O=C(NCC(=O)N1CCC[C@@H]1CO)NCc1ccc2c(c1)[C@H]1C[C@@H](N2)[C@H](O)CO1 [Compound 14, 1-(((2R,3S,6R)-3-hydroxy-2,3,4,6-tetrahydro-1H-2,6-methanobenzo[c][1,5]oxazocin-8-yl)methyl)-3-(2-((R)-2-(hydroxymethyl)pyrrolidin-1-yl)-2-oxoethyl)urea]",4.00 to 6.00,4.00 to 6.00,–
"O=C(NCC(=O)N1CCC[C@@H]1C(F)(F)F)NCc1ccc2c(c1)[C@@H]1C[C@H](N2)[C@H](O)CO1 [Compound 37, 1-(((2S,3S,6S)-3-hydroxy-2,3,4,6-tetrahydro-1H-2,6-methanobenzo[c][1,5]oxazocin-8-yl)methyl)-3-(2-oxo-2-((R)-2-(trifluoromethyl)pyrrolidin-1-yl)ethyl)urea]",4.00 to 6.00,4.00 to 6.00,–
